Measurements as given in ChEMBL document CHEMBL2203204, “Identification of selective inhibitors of indoleamine 2,3-dioxygenase 2” (Bioorg Med Chem Lett, 2012).
Active and inactive are the calls of the source. The calls are words filed in the database; no cut-off is given here.

Columns and labels:
[1] = molecular target: T1, Indoleamine 2,3-dioxygenase 2 (Mus musculus) (UniProt Q8R0V5); settings: HEK-293T, at 20 µM
T1 sequence (whole entry): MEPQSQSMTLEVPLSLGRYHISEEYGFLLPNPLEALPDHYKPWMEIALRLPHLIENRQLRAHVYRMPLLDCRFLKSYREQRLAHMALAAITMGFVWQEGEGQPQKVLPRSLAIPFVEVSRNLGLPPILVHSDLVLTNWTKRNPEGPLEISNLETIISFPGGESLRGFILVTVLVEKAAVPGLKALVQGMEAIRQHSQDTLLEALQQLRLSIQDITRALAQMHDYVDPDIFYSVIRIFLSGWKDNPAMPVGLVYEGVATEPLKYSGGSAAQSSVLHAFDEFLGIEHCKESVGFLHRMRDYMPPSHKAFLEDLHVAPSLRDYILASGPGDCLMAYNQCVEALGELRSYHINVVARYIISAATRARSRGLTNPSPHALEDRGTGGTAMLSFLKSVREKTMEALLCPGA
Description: (§1) Inhibition of mouse Ido2 transfected in HEK293T cells using L-tryptophan as substrate assessed as kynurenine formation at 20 uM after 45 mins by spectrophotometric analysis relative to control

[2] = molecular target: Tryptophan 2,3-dioxygenase (Mus musculus) (UniProt P48776); experiment: Inhibition of mouse Tdo2 transfected in HEK293T cells using L-tryptophan as substrate assessed as kynurenine formation at 100 uM after 45 mins by spectrophotometric analysis relative to control; format: cell-based; settings: HEK-293T
[3] = molecular target: Indoleamine 2,3-dioxygenase 1 (Mus musculus, UniProt P28776); experiment: Inhibition of mouse Ido1 transfected in HEK293T cells using L-tryptophan as substrate assessed as kynurenine formation after 45 mins by spectrophotometric analysis; format: cell-based, HEK-293T
[4] = molecular target: T2, Indoleamine 2,3-dioxygenase 2 (Mus musculus, UniProt Q8R0V5); experiment: Inhibition of mouse Ido2 transfected in HEK293T cells using L-tryptophan as substrate assessed as kynurenine formation after 45 mins by spectrophotometric analysis; format: cell-based, HEK-293T
T2 sequence (Q8R0V5 whole entry): T1 sequence (whole entry)

HEK-293T = experiment: Cytotoxicity against HEK293T cells assessed as decrease in cell viability at 25 uM after 24 hrs by trypan blue exclusion assay; format: cell-based; settings: human
Mus musculus = species: Mus musculus; experiment: Selectivity ratio of IC50 for mouse Ido1 to IC50 for mouse Ido2
[5] = molecular target: Indoleamine 2,3-dioxygenase 1 (Mus musculus) (UniProt P28776); experiment: Inhibition of mouse Ido1 transfected in HEK293T cells using L-tryptophan as substrate assessed as residual activity at 100 uM after 45 mins by spectrophotometric analysis relative to control; format: cell-based; settings: HEK-293T
[6] = molecular target: T1, Indoleamine 2,3-dioxygenase 2 (Mus musculus); experiment: Inhibition of mouse Ido2 transfected in HEK293T cells using L-tryptophan as substrate assessed as assessed as residual activity at 100 uM after 45 mins by spectrophotometric analysis relative to control; format: cell-based; settings: HEK-293T
[7] = molecular target: Indoleamine 2,3-dioxygenase 2 (Mus musculus) (UniProt Q8R0V5); settings: HEK-293T, at 20 µM; remark: listed apart in the source
Description: as §1

Sequence of Tryptophan 2,3-dioxygenase (Mus musculus) (P48776 whole entry): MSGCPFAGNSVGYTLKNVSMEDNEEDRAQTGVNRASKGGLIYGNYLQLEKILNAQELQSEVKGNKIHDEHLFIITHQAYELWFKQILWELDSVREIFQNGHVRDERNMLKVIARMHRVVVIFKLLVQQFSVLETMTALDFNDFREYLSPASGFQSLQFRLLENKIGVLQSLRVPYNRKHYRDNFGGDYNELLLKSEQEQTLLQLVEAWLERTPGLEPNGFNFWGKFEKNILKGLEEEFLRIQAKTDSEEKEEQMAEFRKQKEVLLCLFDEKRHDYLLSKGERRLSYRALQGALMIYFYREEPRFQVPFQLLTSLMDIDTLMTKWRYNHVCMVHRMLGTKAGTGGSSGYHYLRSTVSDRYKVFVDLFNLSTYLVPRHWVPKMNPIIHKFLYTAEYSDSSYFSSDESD
Sequence of Indoleamine 2,3-dioxygenase 1 (P28776 whole entry): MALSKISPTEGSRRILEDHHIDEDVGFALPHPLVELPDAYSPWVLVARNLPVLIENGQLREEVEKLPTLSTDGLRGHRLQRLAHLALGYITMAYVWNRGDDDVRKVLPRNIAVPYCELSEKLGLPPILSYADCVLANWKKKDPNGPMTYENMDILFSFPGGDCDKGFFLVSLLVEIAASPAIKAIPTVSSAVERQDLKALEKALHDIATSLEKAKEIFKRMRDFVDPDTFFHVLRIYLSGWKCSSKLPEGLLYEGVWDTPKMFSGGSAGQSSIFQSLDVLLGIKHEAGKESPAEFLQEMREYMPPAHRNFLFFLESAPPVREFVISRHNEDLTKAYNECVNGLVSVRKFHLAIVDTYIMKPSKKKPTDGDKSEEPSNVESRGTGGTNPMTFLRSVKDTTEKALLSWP
Sequence of Indoleamine 2,3-dioxygenase 1 (Mus musculus) (P28776 whole entry, looked up): as the sequence (P28776 whole entry) above

Q: Which inhibition [1] does the source give for CC#CCC(C)[C@H](O)/C=C/[C@@H]1[C@H]2C/C(=C/CCCC(=O)O)C[C@H]2C[C@H]1O (some centres not stated) here?
A: > 55%

Q: With CC(C)C[C@H]1C(=O)N2CCC[C@H]2[C@]2(O)O[C@](NC(=O)[C@@H]3C=C4c5cccc6[nH]c(Br)c(c56)C[C@H]4N(C)C3)(C(C)C)C(=O)N12 as the compound, how does the inhibition [1] read?
A: > 55%

Q: How did the inhibition [1] turn out when CC(C)OC(=O)C(C)(C)Oc1ccc(C(=O)c2ccc(Cl)cc2)cc1 was run?
A: > 55%

Q: With CC(c1cc2ccccc2s1)N(O)C(N)=O (configuration not stated) as the compound, how does the inhibition [1] read?
A: > 55%

Q: CC1=C(C)C(=O)C(CCCCC#CCCCC#CCO)=C(C)C1=O was tested. Which inhibition [1] did it give?
A: > 55%

Q: Which inhibition [1] does the source give for CCCCCN(CCCCC)C(=O)C(CCC(=O)O)NC(=O)c1ccc(Cl)c(Cl)c1 (configuration not stated) here?
A: > 55%

Q: CCCSc1ccc2[nH]c(NC(=O)OC)nc2c1 was tested. Which inhibition [1] did it give?
A: > 55%

Q: For CCC[S+]([O-])c1ccc2[nH]c(NC(=O)OC)nc2c1 (configuration not stated), which inhibition [1] is on record?
A: > 55%

Q: How did the inhibition [1] turn out when CCCc1nc2c(C)cc(-c3nc4ccccc4n3C)cc2n1Cc1ccc(-c2ccccc2C(=O)O)cc1 was run?
A: > 55%

Q: Which inhibition [1] does the source give for CCN(CC)C(=S)SSC(=S)N(CC)CC here?
A: > 55%

Q: With CCN(CC)CCCC(C)Nc1c2ccc(Cl)cc2nc2ccc(OC)cc12 (configuration not stated) as the compound, how does the inhibition [1] read?
A: > 55%

Q: Which inhibition [1] does the source give for CCOC(=O)C1=C(C)NC(C)=C(C(=O)OC)C1c1cccc(Cl)c1Cl (configuration not stated) here?
A: > 55%

Q: With CCOC(=O)C1=C(C)NC(C)=C(C(=O)OC)C1c1cccc([N+](=O)[O-])c1 (configuration not stated) as the compound, how does the inhibition [1] read?
A: > 55%

Q: Which inhibition [1] does the source give for CCOC(=O)C1=C(C)NC(C)=C(C(=O)OCC)C1c1ccccc1/C=C/C(=O)OC(C)(C)C here?
A: > 55%

Q: How did the inhibition [1] turn out when CC[C@@H](C(N)=O)N1CCCC1=O was run?
A: > 55%

Q: With CN1C[C@H](C(=O)N[C@]2(C)O[C@@]3(O)[C@@H]4CCCN4C(=O)[C@H](Cc4ccccc4)N3C2=O)C=C2c3cccc4[nH]cc(c34)C[C@H]21 as the compound, how does the inhibition [1] read?
A: > 55%

Q: For COC(=O)C1=C(C)NC(C)=C(C(=O)OCC(C)C)C1c1ccccc1[N+](=O)[O-] (configuration not stated), which inhibition [1] is on record?
A: > 55%

Q: How did the inhibition [1] turn out when COC(=O)C1=C(C)NC(C)=C(C(=O)OCCN(C)Cc2ccccc2)C1c1cccc([N+](=O)[O-])c1 (configuration not stated) was run?
A: > 55%

Q: Which inhibition [1] does the source give for COC(=O)Nc1nc2cc(C(=O)c3ccccc3)ccc2[nH]1 here?
A: > 55%

Q: With COC(=O)Nc1nc2cc([S+]([O-])c3ccccc3)ccc2[nH]1 (configuration not stated) as the compound, how does the inhibition [1] read?
A: > 55%

Q: With COCCOC(=O)C1=C(C)NC(C)=C(C(=O)OC(C)C)C1c1cccc([N+](=O)[O-])c1 (configuration not stated) as the compound, how does the inhibition [1] read?
A: > 55%

Q: With COCCOC(=O)C1=C(C)NC(C)=C(C(=O)OC/C=C/c2ccccc2)C1c1cccc([N+](=O)[O-])c1 (configuration not stated) as the compound, how does the inhibition [1] read?
A: > 55%

Q: Which inhibition [1] does the source give for COc1cc2c(cc1OC)-c1c/c(=N\c3c(C)cc(C)cc3C)n(C)c(=O)n1CC2 here?
A: > 55%

Q: How did the inhibition [1] turn out when COc1cc2nc(N(C)CCCNC(=O)C3CCCO3)nc(N)c2cc1OC (configuration not stated) was run?
A: > 55%

Q: With COc1ccccc1OCCNCC(O)COc1cccc2[nH]c3ccccc3c12 (configuration not stated) as the compound, how does the inhibition [1] read?
A: > 55%

Q: How did the inhibition [2] turn out when COc1ccnc(C[S+]([O-])c2nc3cc(OC(F)F)ccc3[nH]2)c1OC (configuration not stated) was run?
A: inactive

Q: How did the inhibition [1] turn out when C[C@@H]1CC[C@H]2[C@@H](C)C(=O)O[C@@H]3O[C@@]4(C)CC[C@@H]1[C@]32OO4 was run?
A: > 55%

Q: With C[C@H](CS)C(=O)N1CCC[C@H]1C(=O)O as the compound, how does the inhibition [1] read?
A: > 55%

Q: How did the inhibition [1] turn out when Clc1ccc(C(Cn2ccnc2)OCc2ccsc2Cl)c(Cl)c1 (configuration not stated) was run?
A: > 55%

Q: How did the inhibition [1] turn out when Clc1ccc(C(Cn2ccnc2)OCc2csc3c(Cl)cccc23)c(Cl)c1 (configuration not stated) was run?
A: > 55%

Q: For Clc1ccc(CO/N=C(\Cn2ccnc2)c2ccc(Cl)cc2Cl)c(Cl)c1, which inhibition [1] is on record?
A: > 55%

Q: For NC[C@H]1CC[C@H](C(=O)O)CC1, which inhibition [1] is on record?
A: > 55%

Q: Which inhibition [1] does the source give for O=C(O)Cc1sc(-c2ccccc2)nc1-c1ccc(Cl)cc1 here?
A: > 55%

Q: How did the inhibition [1] turn out when O=C1Nc2ccc(Cl)cc2[C@@](C#CC2CC2)(C(F)(F)F)O1 was run?
A: > 55%

Q: For OCCN(CCO)c1nc(N2CCCCC2)c2nc(N(CCO)CCO)nc(N3CCCCC3)c2n1, which inhibition [1] is on record?
A: > 55%

Q: c1ccc(-c2ccc(C(c3ccccc3)n3ccnc3)cc2)cc1 (configuration not stated) was tested. Which inhibition [1] did it give?
A: > 55%

Q: How did the IC50 [3] turn out when Clc1ccccc1C(c1ccccc1)(c1ccccc1)n1ccnc1 [CLOTRIMAZOLE] was run?
A: 51.6 µM

Q: What about the IC50 [4] of the same compound?
A: 5.9 µM

Q: And the inhibition [2]?
A: > 95%

Q: What does the source list for Clc1ccc(COC(Cn2ccnc2)c2ccc(Cl)cc2Cl)cc1 (configuration not stated) [ECONAZOLE]?
A: IC50 [3]: 11.2 µM; IC50 [4]: 7.6 µM; inhibition [2]: > 95%

Q: Which IC50 [3] does the source give for CC1=C(/C=C/C(C)=C/C=C/C(C)=C/C(=O)Nc2ccc(O)cc2)C(C)(C)CCC1 [FENRETINIDE] here?
A: 59.9 µM

Q: What about the inhibition [1] of the same compound?
A: > 55%

Q: What about the IC50 [4] of the same compound?
A: 18.7 µM

Q: And the inhibition [2]?
A: 32%

Q: And the Activity (HEK-293T)?
A: Non-toxic

Q: How did the IC50 [3] turn out when Cc1c(OCC(F)(F)F)ccnc1C[S+]([O-])c1nc2ccccc2[nH]1 (configuration not stated) [LANSOPRAZOLE] was run?
A: 94 µM

Q: What about the IC50 [4] of the same compound?
A: 8.2 µM

Q: And the inhibition [2]?
A: < 20%

Q: And the Activity (HEK-293T)?
A: Non-toxic

Q: What does the source list for Clc1ccc(COC(Cn2ccnc2)c2ccc(Cl)cc2Cl)c(Cl)c1 (configuration not stated) [MICONAZOLE]?
A: IC50 [3]: 17.8 µM; inhibition [1]: > 55%; IC50 [4]: 6.7 µM; inhibition [2]: > 95%; Activity (HEK-293T): Non-toxic

Q: Which IC50 [3] does the source give for COC(=O)C1=C(C)NC(C)=C(C(=O)OC)C1c1ccccc1[N+](=O)[O-] [NIFEDIPINE] here?
A: 46 µM

Q: What about the inhibition [1] of the same compound?
A: > 55%

Q: What about the IC50 [4] of the same compound?
A: 1.5 µM

Q: What about the Ratio IC50 (Mus musculus) of the same compound?
A: 30

Q: And the inhibition [2]?
A: < 20%

Q: COc1ccnc(C[S+]([O-])c2nc3ccc(OC(F)F)cc3[nH]2)c1OC (configuration not stated) [PANTOPRAZOLE] was tested. Which IC50 [3] did it give?
A: 109 µM

Q: And the IC50 [4]?
A: 12.6 µM

Q: CCCc1nn(C)c2c(=O)[nH]c(-c3cc(S(=O)(=O)N4CCN(C)CC4)ccc3OCC)nc12 [SILDENAFIL] was tested. Which IC50 [3] did it give?
A: > 100 µM

Q: And the inhibition [1]?
A: > 55%

Q: What about the IC50 [4] of the same compound?
A: 4.5 µM

Q: And the inhibition [2]?
A: inactive

Q: With Clc1ccc(CSC(Cn2ccnc2)c2ccc(Cl)cc2Cl)cc1 (configuration not stated) [SULCONAZOLE] as the compound, how does the IC50 [3] read?
A: 29.3 µM

Q: What about the IC50 [4] of the same compound?
A: 10.1 µM

Q: What about the inhibition [2] of the same compound?
A: > 95%

Q: Which IC50 [3] does the source give for COc1ccc2[nH]c([S+]([O-])Cc3ncc(C)c(OC)c3C)nc2n1 (configuration not stated) [TENATOPRAZOLE] here?
A: > 100 µM

Q: And the inhibition [1]?
A: > 55%

Q: What about the IC50 [4] of the same compound?
A: 1.8 µM

Q: And the inhibition [2]?
A: inactive

Q: How did the IC50 [3] turn out when CC1=C(/C=C/C(C)=C/C=C/C(C)=C/C(=O)O)C(C)(C)CCC1 [TRETINOIN] was run?
A: 301 µM

Q: What about the inhibition [1] of the same compound?
A: > 55%

Q: What about the IC50 [4] of the same compound?
A: 28.7 µM

Q: And the Activity [5]?
A: 100%

Q: And the Ratio IC50 (Mus musculus)?
A: 10

Q: What about the inhibition [2] of the same compound?
A: inactive

Q: What about the Activity [6] of the same compound?
A: < 5%

Q: What does the source list for Cc1c(C)c2c(c(C)c1O)CCC(C)(COc1ccc(CC3SC(=O)NC3=O)cc1)O2 (configuration not stated) [TROGLITAZONE]?
A: IC50 [3]: 61 µM; inhibition [1]: > 55%; IC50 [4]: 4.5 µM; Ratio IC50 (Mus musculus): 14; inhibition [2]: < 20%

Q: With AURANOFIN as the compound, how does the inhibition [7] read?
A: > 55%
